Measurements from DBAASP.
In brackets after ≈: the same amount, converted by molar mass.

Legend:
Assay in all cases: ≥ marks a high value that may be exact or a test limit, other limits are often not marked, values filed in µg/mL are converted to µM
[1] = tested on: Salmonella typhimurium SL1344
[2] = tested on: Escherichia coli O157:H7
[3] = tested on: Salmonella enterica subsp. enterica serovar Enteritidis MH91989
[4] = tested on: Escherichia coli MC1061
[5] = tested on: Escherichia coli J2210
[6] = tested on: Escherichia coli JJ2487
[7] = tested on: Escherichia coli JW0013
[8] = tested on: Escherichia coli UB1005
[9] = tested on: Salmonella enterica subsp. enterica serovar Typhimurium C77-31
[10] = tested on: Staphylococcus aureus ATCC 25923
[11] = tested on: Staphylococcus aureus ATCC 43300
[12] = tested on: Candida albicans CGMCC 2.2086
[13] = tested on: Pseudomonas aeruginosa ATCC 27853
[14] = tested on: Escherichia coli 078
[15] = tested on: Staphylococcus aureus ATCC 29213
[16] = tested on: Escherichia coli K88
[17] = tested on: Escherichia coli ATCC 25922
[18] = tested on: Salmonella enterica subsp. enterica serovar Typhimurium ATCC 14028
[19] = tested on: Escherichia coli K99
[20] = tested on: Candida parapsilosis CGMCC 2.3989
[21] = tested on: Candida tropicalis CGMCC 2.1975
[22] = tested on: Staphylococcus epidermidis ATCC 12228
[23] = tested on: Staphylococcus aureus ATCC 33591
[24] = tested on: Candida albicans ATCC 10231
[25] = tested on: Cryptococcus neoformans ATCC 32045
[26] = tested on: Pseudomonas aeruginosa ATCC 10145
[27] = tested on: Escherichia coli ATCC 2592
[28] = tested on: Staphylococcus aureus CCRC 12652
[29] = tested on: Staphylococcus xylosus
[30] = tested on: Vibrio parahaemolyticus CCRC 10806
[31] = tested on: Escherichia coli JM109
[32] = tested on: Klebsiella pneumoniae CCRC 10694
[33] = tested on: Lactobacillus delbrueckii subsp. bulgaricus
[34] = tested on: Enterococcus faecium
[35] = tested on: Salmonella enterica
[36] = tested on: Salmonella typhimurium CCRC 12947
[37] = tested on: Bifidobacterium adolescentis
[38] = tested on: Citrobacter koseri
[39] = tested on: Pseudomonas aeruginosa
[40] = tested on: Escherichia coli BL21
[41] = tested on: Staphylococcus aureus CCRC 15211

Work on `CC[C@H](C)[C@H](NC(=O)[C@H](CCCN=C(N)N)NC(=O)[C@H](CCCN=C(N)N)NC(=O)[C@@H]1CCCN1C(=O)[C@@H]1CCCN1C(=O)[C@H](CCCN=C(N)N)NC(=O)[C@@H]1CCCN1C(=O)[C@H](CCCN=C(N)N)NC(=O)[C@@H]1CCCN1C(=O)[C@H](CCCN=C(N)N)NC(=O)[C@H](Cc1ccc(O)cc1)NC(=O)[C@@H]1CCCN1C(=O)[C@H](CCCN=C(N)N)NC(=O)[C@H](CCCCN)NC(=O)[C@H](CC(=O)O)NC(=O)[C@@H](N)C(C)C)C(=O)N[C@@H](Cc1ccc(O)cc1)C(=O)N[C@@H](CC(N)=O)C(=O)N[C@@H](CCCN=C(N)N)C(N)=O` [VDKRPYRPRPRPPRRIYNR] yielded an MIC [1] of 0.156 µM (≈ 0.39 µg/mL), an MIC [2] of 0.666 µM (≈ 1.66 µg/mL) and an MIC [3] of 0.169 µM (≈ 0.42 µg/mL). The MIC [4] was 0.0602 µM (≈ 0.15 µg/mL), the MIC [5] was 0.12 µM (≈ 0.3 µg/mL) and the MIC [6] was 0.169 µM (≈ 0.42 µg/mL). It also gave an MIC [7] of 0.156 µM (≈ 0.39 µg/mL).

In the case of `CC[C@H](C)[C@H](NC(=O)[C@H](CCCCN)NC(=O)[C@H](C)NC(=O)[C@H](C)N)C(=O)N[C@H](C(=O)N[C@@H](CC(C)C)C(=O)N[C@@H](CC(N)=O)C(=O)N1CCC[C@H]1C(=O)N[C@@H](CCCCN)C(=O)N[C@@H](Cc1ccccc1)C(=O)N[C@@H](CCCN=C(N)N)C(N)=O)[C@@H](C)CC` [AAKIILNPKFR], the MIC [8] is reported as ≥ 128 µM, the MIC [9] is reported as ≥ 128 µM and the MIC [10] is reported as > 128 µM. The MIC [11] was > 128 µM, the MIC [12] was ≥ 128 µM and the MIC [13] was > 128 µM. The MIC [14] was ≥ 128 µM, the MIC [15] was > 128 µM and the MIC [16] was ≥ 128 µM. For the same compound, the MIC [17] was > 128 µM, the MIC [18] was > 128 µM and the MIC [19] was ≥ 128 µM. The MIC [20] was ≥ 128 µM, the MIC [21] was ≥ 128 µM and the MIC [22] was > 128 µM.

`CC[C@H](C)[C@H](NC(=O)[C@H](CCCN=C(N)N)NC(=O)[C@H](CCCN=C(N)N)NC(=O)[C@@H]1CCCN1C(=O)[C@@H]1CCCN1C(=O)[C@H](CCCN=C(N)N)NC(=O)[C@@H]1CCCN1C(=O)[C@H](CCCN=C(N)N)NC(=O)[C@@H]1CCCN1C(=O)[C@H](CC(C)C)NC(=O)[C@H](Cc1ccc(O)cc1)NC(=O)[C@@H]1CCCN1C(=O)[C@H](CCCN=C(N)N)NC(=O)[C@H](CCCCN)NC(=O)[C@H](CC(=O)O)NC(=O)[C@@H](N)C(C)C)C(=O)N[C@@H](Cc1ccc(O)cc1)C(=O)N[C@@H](CC(N)=O)C(=O)N[C@@H](CCCN=C(N)N)C(N)=O` [VDKRPYLPRPRPPRRIYNR] showed an MIC [1] of 0.245 µM (≈ 0.6 µg/mL), an MIC [2] of 0.98 µM (≈ 2.4 µg/mL) and an MIC [3] of 0.245 µM (≈ 0.6 µg/mL). For the same compound, the MIC [4] was 0.122 µM (≈ 0.3 µg/mL), the MIC [5] was 0.245 µM (≈ 0.6 µg/mL) and the MIC [6] was 0.159 µM (≈ 0.39 µg/mL). For the same compound, the MIC [7] was 0.339 µM (≈ 0.83 µg/mL).

With `CC(C)C[C@H](NC(=O)[C@H](CCCN=C(N)N)NC(=O)[C@H](CC(C)C)NC(=O)[C@H](CCCN=C(N)N)NC(=O)[C@H](CC(C)C)NC(=O)[C@H](CCCN=C(N)N)NC(=O)[C@H](CC(C)C)NC(=O)[C@H](CCCN=C(N)N)NC(=O)[C@H](CC(C)C)NC(=O)[C@H](CCCN=C(N)N)NC(=O)[C@H](CC(C)C)NC(=O)[C@H](CCCN=C(N)N)NC(=O)[C@@H](N)CC(C)C)C(=O)N[C@@H](CCCN=C(N)N)C(=O)O` [LRLRLRLRLRLRLR] the MIC [23] was ≥ 186 µM, the MIC [24] was 186 µM (≈ 354 µg/mL) and the MIC [25] was 2.97 µM (≈ 5.66 µg/mL). The MIC [26] was ≥ 65.7 µM and the MIC [27] was 23 µM (≈ 43.8 µg/mL).

In the case of `CC[C@H](C)[C@H](NC(=O)[C@H](CO)NC(=O)[C@H](CCCCN)NC(=O)[C@H](CC(C)C)NC(=O)[C@H](CCCCN)NC(=O)[C@@H](N)CC(C)C)C(=O)N[C@H](C(=O)N[C@@H](CO)C(=O)N[C@@H](Cc1ccc(O)cc1)C(=O)N[C@@H](C)C(=O)N[C@@H](CCCCN)C(=O)N[C@@H](CCCCN)C(=O)N[C@H](C(=O)N[C@@H](CC(C)C)C(N)=O)C(C)C)C(C)C` [LKLKSIVSYAKKVL], the MIC [28] is reported as ≥ 80.5 µM, the MIC [29] is reported as 0.629 µM (≈ 0.999 µg/mL) and the MIC [30] is reported as ≥ 40.3 µM. For the same compound, the MIC [31] was 1.26 µM (≈ 2 µg/mL), the MIC [32] was ≥ 80.5 µM and the MIC [33] was ≥ 80.5 µM. For the same compound, the MIC [34] was ≥ 80.5 µM, the MIC [35] was ≥ 80.5 µM and the MIC [36] was ≥ 80.5 µM. For the same compound, the MIC [37] was ≥ 80.5 µM, the MIC [38] was 5.03 µM (≈ 8 µg/mL) and the MIC [39] was 80.5 µM (≈ 128 µg/mL). For the same compound, the MIC [40] was 10.1 µM (≈ 16 µg/mL) and the MIC [41] was ≥ 80.5 µM.

With `NCCCC[C@H](NC(=O)[C@H](Cc1ccccc1)NC(=O)[C@H](CCCCN)NC(=O)[C@H](CCCCN)NC(=O)[C@H](Cc1ccccc1)NC(=O)[C@H](CCCCN)NC(=O)[C@H](CCCCN)NC(=O)[C@H](Cc1ccccc1)NC(=O)[C@H](CCCCN)NC(=O)[C@H](CCCCN)NC(=O)[C@H](Cc1ccccc1)NC(=O)[C@H](CCCCN)NC(=O)[C@H](CCCCN)NC(=O)[C@H](Cc1ccccc1)NC(=O)[C@H](CCCCN)NC(=O)[C@H](CCCCN)NC(=O)[C@H](Cc1ccccc1)NC(=O)[C@H](CCCCN)NC(=O)[C@H](CCCCN)NC(=O)[C@H](Cc1ccccc1)NC(=O)[C@@H](N)CCCCN)C(=O)O` [KFKKFKKFKKFKKFKKFKKFK] the MIC [23] was ≥ 176 µM, the MIC [24] was 124 µM (≈ 354 µg/mL) and the MIC [25] was 17.5 µM (≈ 49.8 µg/mL). For the same compound, the MIC [26] was ≥ 44 µM and the MIC [27] was 15.4 µM (≈ 43.8 µg/mL).
